Results published in US9884065B2, “Inhibiting activity of senescent cells using a glucocorticoid” (Buck Institute for Research on Aging, priority 2011, dated 2018).

Experiments:
[1] = tested on: HCA2 human fibroblasts; conditions: 2.5 μM, 48 hours
Procedure: (§1) The initial drug screen was performed in a 96-well format using automated liquid handling with a Biomek FX (Beckman Coulter, CA). Senescent cells were plated 24 hours after X-irradiation at 7,500 cells per well in 96-well plates. Six days after plating the senescent cells, the pre-senescent cells were plated at 7,500 cells per well in 96-well plates. Twenty-four hours after pre-senescent plating, both pre-senescent and senescent cells were washed and incubated in low (0.2%) serum for 48 hours to arrest cell proliferation of the pre-senescent cells. Drugs from the Prestwick Chemical Library, which contains 1120 bio-available compounds in DMSO, were given to the cells at 2.5 μM in media containing 0.2% serum. Forty-eight hours after compound addition, the medium in each well was removed and frozen for assay by ELISA to quantitate the levels of IL-6. The cells, which remained in the wells after the medium was removed, were lysed and ATP levels were measured (ATPlite 1-step assay, Perkin Elmer, MA) to exclude compounds that lowered IL-6 through toxicity (cell death). Experimental wells in each plate were normalized to plate mean or same-plate DMSO controls for the ELISA and ATP assays, respectively.
To identify small molecules that may be potential SASP modulators, a screening strategy that entailed administering compounds to parallel 96-well plates containing human fibroblasts (strain HCA2) that were either quiescent or senescent was developed. The compounds tested comprised the Prestwick Chemical Library, a collection of approximately 1,120 Federal Drug Administration-approved drugs. The compounds were added to duplicate wells at a single concentration (2.5 μM). After 48 hours, the medium from each well was removed, and the cells were lysed. […] Cell lysates were assayed for ATP as a surrogate for cell number.

[2] = tested on: IL-6; test: IL-6 ELISA of conditioned media from X-irradiated senescent HCA2 fibroblasts; assay type: cell-based, human; conditions: for IL-6 secretion, varying concentrations: added immediately after irradiation, 6 days
Procedure: To validate glucocorticoids as SASP regulators, they were added within 15 min after irradiation (unless otherwise indicated). For cells induced to senesce by MKK6 or RAS overexpression, glucocorticoid treatment started 16 hours after infection. Glucocorticoids were re-added in fresh media every other day. Six days after irradiation or selection, cells were given serum-free DMEM with or without glucocorticoid for 24 hours; the conditioned media were collected and frozen for ELISAs.
Conditioned media were filtered and stored at −80° C. Cell numbers were determined in every experiment. ELISAs were performed using kits and procedures from PerkinElmer (IL-6 AL223F). Data were normalized and expressed as pg/ml/cell/24 h.
To confirm the ability of corticosterone to suppress senescence-associated IL-6 secretion, fresh HCA2 fibroblast cultures were prepared, and senescence was induced by X-irradiation (10 Gy). Under these conditions, cells undergo growth arrest within 24-48 hours, but require 4-5 days before SASP components are detected in the medium (Coppe et al., 2008, PLoS Biol. 6:2853-2868; Rodier et al., 2009, Nature Cell Biol. 11:973-979; Coppe et al., 2010, PLoS ONE 5:e9188; Freund et al., 2011, EMBO J. 30:1536-1548). Varying concentrations of corticosterone were added immediately after irradiation, and the cells were maintained in the drug for 6 days. On the 6th day, the cells were incubated in serum-free medium with or without corticosterone, the conditioned medium was collected 24 h later, and the medium was assayed for IL-6 by ELISA. […] The ability of corticosterone to suppress IL-6 secretion by senescent cells was not peculiar to HCA2 cells.

[3] = tested on: IL-6; test: IL-6 ELISA, HCA2 cells induced to senesce by oncogenic RAS or MKK6 overexpression; assay type: cell-based, human; conditions: 500 nM corticosterone, 100 nM cortisol, 6 days
Procedure: (FIG. 12A) Senescent X-irradiated with 10 Gy (Sen (XRA)) HCA2 fibroblasts were incubated in medium plus 10% serum containing the indicated concentrations of corticosterone or the highest concentration of DMSO (vehicle control). The cells were given corticosterone or DMSO immediately after irradiation and analyzed 6 days later. The cells were washed and incubated in serum-free medium without corticosterone to generate conditioned media. Conditioned media from pre-senescent (Pre) and control or corticosterone-treated Sen (XRA) cells were analyzed by ELISA for IL-6. (FIG. 12B) Cells were treated, and conditioned media were generated and analyzed as described in (FIG. 12A) except cortisol was used at the indicated concentrations. (FIG. 12C) Conditioned media were collected from presenescent (PRE) or senescent (XRA) cells that were treated with DMSO, corticosterone ([…]), or cortisol (100 nM) as described in (FIG. 12A). The conditioned media were analyzed by antibody arrays. Average signal from PRE and XRA DMSO cells was used as the baseline. Signals higher than baseline are light gray (see +1 on scale to right); signals lower than baseline are dark gray as illustrated by PRE DMSO (see −1 on scale at right). […]
Conditioned media were filtered and stored at −80° C. Cell numbers were determined in every experiment. […] Data were normalized and expressed as pg/ml/cell/24 h.

[4] = tested on: IL-6; test: Initial drug screen (Prestwick Chemical Library), IL-6 ELISA of medium; assay type: cell-based, human; conditions: 2.5 μM, 48 hours, HCA2 fibroblasts, 0.2% serum
Procedure: as §1, with “Drugs from the Prestwick Chemical Library, which contains 1120 bio-available compounds in DMSO, were given to the cells at 2.5 μM in media containing 0.2% serum.” left out
To identify small molecules that may be potential SASP modulators, a screening strategy that entailed administering compounds to parallel 96-well plates containing human fibroblasts (strain HCA2) that were either quiescent or senescent was developed. […] After 48 hours, the medium from each well was removed, and the cells were lysed. […] Cell lysates were assayed for ATP as a surrogate for cell number.

In the case of `C[C@]12C[C@H](O)[C@H]3[C@@H](CCC4=CC(=O)CC[C@@]43C)[C@@H]1CC[C@@H]2C(=O)CO` [corticosterone], the ATP levels [1] is reported as “without altering ATP levels”, the “reduction of IL-6 secretion” value ([2]; 20 nM corticosterone) is reported as “approximately 50%” and the “maximal suppression of IL-6 secretion” value ([2]; 500 nM corticosterone) is reported as over 90%. For the same compound, the “IL-6 secretion, continuous exposure” value ([2]; 500 nM, continuous exposure for 7 days after irradiation) was “strongly suppressed IL-6 secretion”, the “IL-6 secretion, short exposure” value ([2]; 500 nM, pretreatment before X-irradiation, or only 24 hours immediately after irradiation or after establishment of the SASP (7 days)) was “had no effect on IL-6 secretion” and the “IL-6 secretion, varying concentrations” value [2] was “decreased IL-6 secretion in a dose-dependent manner”. For the same compound, the “suppression of senescence-associated IL-6 secretion” value [3] was “effective” and the “IL-6 secretion (ELISA)” value [4] was “suppressed IL-6 secretion”.
For `C[C@]12CCC(=O)C=C1CC[C@@H]1[C@@H]2[C@@H](O)C[C@@]2(C)[C@H]1CC[C@]2(O)C(=O)CO` [cortisol], the ATP levels [1] was “without altering ATP levels”, the “reduction of senescence-associated IL-6 secretion” value ([2]; 100 nM cortisol) was over 90% and the IC50 ([2]; Homo sapiens, HCA2, sub-nM concentrations, read-out: concentration reducing senescence-associated IL-6 secretion by 50%) was 0.16 to 0.8 nM. The “IL-6 secretion, varying concentrations” value [2] was “decreased IL-6 secretion in a dose-dependent manner, and was more potent than corticosterone”, the “suppression of senescence-associated IL-6 secretion” value [3] was “effective” and the “IL-6 secretion (ELISA)” value [4] was “suppressed IL-6 secretion”.
